Here are results for one compound from patent US20240208984A1, “BIVALENT LIGANDS TO UNDERSTAND DIMERIZATION OF THE MU OPIOID RECEPTOR AND THE CHEMOKINE RECEPTOR CCR5 IN NEUROLOGICAL DISORDERS” (priority 2021, published 2024).

Structures are written as SMILES. Where two headings read alike, the source gives them in different places.

The target in one series is mouse MOR (Mus musculus (Mouse), UniProt P42866). As to the kind of experiment: In vitro MOR radioligand binding assay. The settings on record: [3H]naloxone radioligand; mMOR-CHO; mean ± SEM; read-out: MOR Radioligand Binding Affinity Ki.
In another series the target is CCR5 (Homo sapiens (Human), UniProt P51681). As to the kind of experiment: Calcium mobilization assay in HOS-CCR5 cells. The series is classed as cell-based. The method, then:
We then conducted the calcium mobilization assay to further test both the agonist and antagonist properties of the newly synthesized compounds in the HOS-CCR5 (stably transfected for the expression of CCR5) cells using our reported protocol, as calcium mobilization is associated with the activation of CCR5. Prior to the assay, the HOS-CCR5 cells were transiently transfected with a Gqi5 to boost calcium signaling levels.
In the antagonism assay, these compounds were assessed for their ability to inhibit CCL5-stimulated Ca^2+ mobilization.
HOS-CCR5 cells were transfected with Gqi5 pcDNA16 using Lipofectamine 2000 (Invitrogen) according to the manufacturer's recommended procedure and maintained in RPMI 1640 supplemented with 10% fetal bovine serum, 100 μg/mL penicillin, 100 μg/mL streptomycin, and 1 mg/mL G418 at 37° C. and 5% C02. 48 h after transfection, a total of 2,500,000 cells were spun down and brought back up in 8 mL of 50:1 HBSS: HEPES assay buffer. Cells were then plated at 25,000 cells per well into a clear bottom, black 96-well plate (Greiner Bio-one) and 50 μL of Fluo4 loading buffer [40 μL of 2 μM Fluo4-AM (Invitrogen), 100 μL of 2.5 mM probenecid, in 5 mL of assay buffer] was added to bring the volume up to 130 μL. After incubating for 45 min, 50 μL of varying concentrations of tested compounds were added and the plate was incubated for an additional 15 min. Plates were then read on a FlexStation3 microplate reader (Molecular Devices) at 494/516 ex/em for a total of 120 s. After 16 s of reading, 20 μL of 200 nM CCL5 (Biosource) in assay buffer, or assay buffer alone, was added to the wells to bring the total volume up to 200 μL. The changes in calcium mobilization were monitored and peak height values were obtained using SoftMaxPro software (Molecular Devices). Non-linear regression curves and IC50 values were generated using GraphPad Prism 8.0.1 (GraphPad Software, San Diego, CA). All experiments were repeated at least three times.

The target of the next series is mouse mu opioid receptor (Mus musculus (Mouse), UniProt P42866). Nature of the series: Calcium mobilization assay in mMOR-CHO cells. Format: cell-based. On the procedure: Calcium mobilization assay results in mMOR-CHO cells. The pharmacological profiles of the three newly prepared MOR bivalent ligands were further characterized for their effects on MOR-dependent intracellular Ca^2+ signaling in an mMOR-CHO cell line that was transfected with chimeric Gqi5 protein as previously described.
A CHO cell line stably expressing the mouse mu opioid receptor (mMOR-CHO) was used for this assay. The cells were transfected with Gαqi5 for 4 h and then plated (10,000 cells/well) to black 96-well plates with clear bottoms (Greiner Bio-One). After 24 h of incubation, the culture medium was removed, and the cells were washed with assay buffer (50 mL of HBSS, 1 mL of HEPES, 250 μL of probenecid, 50 μL of 1 mM CaCl2, and 50 μL of 1 mM MgCl2). The tested compounds were dissolved in DMSO as a stock solution for the assay (1 M). For agonist assays, cells were then incubated with 50 μL/well loading buffer (6 mL of assay buffer, 24 μL of Fluo4-AM solution (Invitrogen), and 12 μL of probenecid solution) for 60 min. Following incubation, different concentrations of the tested compounds were added by a FlexStation3 microplate reader (Molecular Devices) and read at ex494/em516. Each concentration was run in triplicate. For antagonism studies, the cells were incubated with the same loading buffer as the agonist assay for 60 min. Then, different concentrations of the tested compounds (20 μL/well) were manually added to each well followed by another 15 min of incubation. […] Each concentration was run in triplicate. The corresponding IC50 value of each compound was calculated by non-linear regression using GraphPad Prism 8.0.1 (GraphPad Software, San Diego, CA).
(Calcium assays in cells follow changes in intracellular calcium, usually with a dye or a luminescent sensor.)

In series [1] the test system is HIV-1BaL Env-pseudotyped Luc-expressing virus. As to the kind of experiment: HIV-1 infection assay in PHA-stimulated PBMC cells. Format: cell-based. The settings on record: PHA-stimulated PBMCs, 100 nM. On the procedure:
Peripheral blood mononuclear cells (PBMCs) include large numbers of CCR5-expressing leukocytes and are susceptible to infection by R5-tropic HIV-1 strains.
In a 24-well plate, PHA-stimulated PBMC cells from healthy donors were infected by incubation with the HIV-1BaL.01 env-pseudotyped Luc virus. A concentration of HIV-1 p24 50 pg/106 cells was used, and uninfected cells served as a negative control. […] After approximately 18-20 h, the supernatant was removed and stored at −80° C., cells were rinsed twice with PBS and lysed. The lysate was subsequently tested for the relative Tat protein expression by using a luciferase assay system (Promega). Luciferase activity was measured using a PHERASTAR® FS plate reader (BMG Labtech).

Another series deals with HIV-1BaL. Nature of the series: HIV-1BaL infection assay in MOR-CCR5 co-expressed TZM-b1 cells. The conditions noted are these: read-out: Inhibition of HIV-1BaL infection EC50. Format: cell-based.
The target of series [2] is Rhesus macaque chemokine CCR5 receptors (Macaca mulatta (Rhesus macaque), UniProt P61813). As to the kind of experiment: In vitro CCR5 radioligand binding assay. The settings on record: [125I]MIP-1α radioligand; Chem-1 cells; Cheng-Prusoff; mean ± SEM; read-out: CCR5 Radioligand Binding Affinity Ki. The method, then:
In vitro CCR5 radioligand binding studies. To verify the binding affinity of the bivalent ligands to the CCR5, the competitive radioligand binding assay was conducted in recombinant rhesus macaque CCR5-expressing Chem-1 cells, and macrophage inflammatory protein 1 beta (MIP-1β) was used as a control.
The CCR5 competitive radioligand binding assay was conducted following previously reported studies.74, 75 Rhesus macaque chemokine CCR5 receptors expressed in Chem-1 cells are assayed in modified HEPES buffer (50 mM HEPES, 1 mM CaCl2, 5 mM MgCl2, 0.2% BSA, pH 7.4). 3 μg of membrane protein was incubated with 0.10 nM [^125I]MIP-1α in the presence of six concentrations of tested compounds (10 μM, 1 μM, 0.1 μM, 10 nM, 1 nM, and 0.1 nM) for 90 min at 25° C. Non-specific binding is estimated in the presence of 0.1 μM MIP-1β.

Sequence of mouse mu opioid receptor (P42866 whole entry, looked up): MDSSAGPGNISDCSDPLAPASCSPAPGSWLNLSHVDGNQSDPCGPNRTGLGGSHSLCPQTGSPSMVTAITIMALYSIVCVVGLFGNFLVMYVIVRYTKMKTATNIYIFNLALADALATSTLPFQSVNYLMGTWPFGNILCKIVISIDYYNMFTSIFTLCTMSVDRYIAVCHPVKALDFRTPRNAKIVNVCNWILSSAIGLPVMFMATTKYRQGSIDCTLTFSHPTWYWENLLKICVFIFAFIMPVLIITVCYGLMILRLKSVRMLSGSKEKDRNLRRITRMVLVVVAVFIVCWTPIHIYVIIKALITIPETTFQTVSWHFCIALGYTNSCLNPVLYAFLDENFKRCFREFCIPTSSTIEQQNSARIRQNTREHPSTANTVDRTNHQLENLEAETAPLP
Sequence of CCR5 (P51681 whole entry): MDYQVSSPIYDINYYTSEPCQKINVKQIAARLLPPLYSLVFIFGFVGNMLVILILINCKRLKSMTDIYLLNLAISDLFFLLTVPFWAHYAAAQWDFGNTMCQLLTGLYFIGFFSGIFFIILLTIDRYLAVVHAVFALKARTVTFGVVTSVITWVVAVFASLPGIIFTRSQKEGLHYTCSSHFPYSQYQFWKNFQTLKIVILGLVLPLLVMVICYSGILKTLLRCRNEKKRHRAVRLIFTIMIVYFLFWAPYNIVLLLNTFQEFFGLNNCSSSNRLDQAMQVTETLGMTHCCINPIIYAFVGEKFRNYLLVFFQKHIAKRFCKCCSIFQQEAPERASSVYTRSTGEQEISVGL
Sequence of mouse MOR (P42866 whole entry, looked up): as the sequence (P42866 whole entry, looked up) above
Procedure for GHOST CCR5 cells: These compounds were concurrently assessed for cytotoxicity in GHOST-CCR5-expressing cells using the XTT assay. […] The therapeutic index (TI, TC50/EC50) values were calculated if applicable.
100 μL of GHOST CCR5 cells at a density of 1×10^4 cells/well in 10% complete DMEM (10% FBS with 1% L-glutamine and 1% Penicillin/Streptomycin) media were plated in a 96-well flat bottom plate and incubated for 24 h at 37° C./5% CO2. Following the incubation, 100 μL of each compound at 6 concentrations were added in triplicate to both efficacy and toxicity plates followed by 100 μL of HIV-1BaL at a pre-determined titer to the plates being evaluated for efficacy and 50 μL of complete DMEM to the plates being evaluated for cytotoxicity. The cultures were incubated for 6 days at 37° C./5% CO2. Following the incubation, 50 μL of cell culture supernatant was removed from the wells of the efficacy plates for subsequent evaluation of virus content by reverse transcriptase activity assay. The toxicity plates being evaluated for cytotoxicity were stained with XTT.
TC50 values for the tested compounds were derived by measuring the reduction of the tetrazolium dye XTT (2,3-bis(2-methoxy-4-nitro-5-sulfophenyl)-5-[(phenylamino)carbonyl]-2H-tetrazolium hydroxide). XTT in metabolically active cells is metabolized by the mitochondrial enzyme NADPH oxidase to a soluble formazan product. XTT solution was prepared as a stock of 1 mg/mL in RPMI-1640 without additives. Phenazine methosulfate (PMS) solution was prepared at 0.15 mg/mL in DPBS and stored in the dark at −20° C. XTT/PMS stock was prepared immediately before use by adding 40 μL of PMS per mL of XTT solution. 50 μL of XTT/PMS was added to each well of the plate and the plate was incubated for 4 h at 37° C. The plates were sealed and inverted several times to mix the soluble formazan product and the plate was read at 450 nm (650 nm reference wavelength) with a Molecular Devices SPECTRAMAX® Plus 384 96 well format spectrophotometer.
Procedure for mouse MOR: In vitro MOR radioligand binding studies. All bivalent ligands were first tested for their binding affinity to the MOR. The competitive radioligand binding assay was conducted using monoclonal mouse MOR expressed in CHO cell lines (mMOR-CHO).
In vitro MOR radioligand binding assay The competition binding assay was conducted using monoclonal mouse MOR expressed in Chinese hamster ovary (CHO) cell lines. In this assay, 30 μg of membrane protein was incubated with the radioligand [^3H] naloxone in the presence of different concentrations of tested compounds in TME buffer (50 mM Tris, 3 mM MgCl2, and 0.2 mM EGTA, pH 7.4) for 1.5 h at 30° C. The bound radioligand was separated by filtration using a Brandel harvester. […] The IC50 values were determined and converted to Ki values using the Cheng-Prusoff equation: Ki=IC50/[1+([L*]/KD)], where [L*] is the concentration of the radioligand and KD is the KD of the radioligand was determined.73

Usually Ki stands for the equilibrium dissociation constant of an inhibitor or competing ligand from its target. A word on the IC50: it is the concentration at which inhibition is half-maximal. For orientation: EC50 means the concentration giving half of the maximal effect. By cell viability is commonly meant the share of living cells, or the viability signal relative to a control. Read a low cell viability as a greater loss of cells. Consider `CC(C)c1nnc(CCNC(=O)COCC(=O)NCCCCCCCNC(=O)COCC(=O)NC2CC[C@@]3(O)[C@H]4Cc5ccc(O)c6c5[C@@]3(CCN4CC3CC3)[C@H]2O6)n1C1CC2CCC(C1)N2CC[C@H](NC(=O)C1CCC(F)(F)CC1)c1ccccc1` (some centres unmarked) [VZMC013], for which the figures for the inhibition constant (Ki) (at mouse MOR; in series [2]) were 6.05 nM and 3.29 nM, respectively. For the same compound, the IC50 at CCR5 (HOS-CCR5 transfected with Gqi5, mean ± SEM, read-out: Inhibition of CCL5-stimulated Intracellular Ca2+ Mobilization IC50) turned out to be 57.5 nM; on mouse mu opioid receptor (read-out: Inhibition of DAMGO Induced Ca2+ Mobilization IC50, mMOR-CHO transfected with Gqi5, DAMGO 500 nM, mean ± SEM), 50 ± 2.45 nM. Besides, the “CCR5 activation (agonism) in Ca2+ mobilization” value at CCR5 (agonist mode, range of concentrations tested) is given as “none of these compounds appeared to activate CCR5”. In addition, the “MOR agonism in Ca2+ mobilization” value on mouse mu opioid receptor (agonist mode, varying concentrations) is “No agonism was observed”. For the same compound, the “decrease in HIV expression” value in series [1] (co-exposed to DAMGO 10 nM) came to 69%; in series [1] (co-exposed to morphine 10 nM) it was 55%. The “reduction in luminescence (viral entry)” value in series [1] (no opioid) is 22%. Also, the EC50 in the series on HIV-1BaL (OPRM1 transfected TZM-b1 cells, morphine 100 μM added) was 247 nM; in the series with HIV-1BaL (OPRM1 transfected TZM-b1 cells, without morphine) it was 368 nM; in the series with HIV-1BaL (control plasmid transfected TZM-b1 cells) it was 610 nM. In the series on GHOST CCR5 cells (GHOST CCR5 cells, XTT, triplicate), the “Cytotoxicity TC50” value is over 100000 nM. For the same compound, the cell viability with GHOST CCR5 cells (any concentration ≤100 μM, untreated cells = 100%) is given as about 100%.
